BindingDB's records for aid1799744 (Csar, 2012)
Values joined by “and” are separate entries in the source; they are usually repeats but may differ in a detail not shown here. Identical values can stand only once.

Target: Mitogen-activated protein kinase 1 (Homo sapiens, UniProt P28482)
Assay: Assay 1

Sequence of Mitogen-activated protein kinase 1 (P28482 whole entry): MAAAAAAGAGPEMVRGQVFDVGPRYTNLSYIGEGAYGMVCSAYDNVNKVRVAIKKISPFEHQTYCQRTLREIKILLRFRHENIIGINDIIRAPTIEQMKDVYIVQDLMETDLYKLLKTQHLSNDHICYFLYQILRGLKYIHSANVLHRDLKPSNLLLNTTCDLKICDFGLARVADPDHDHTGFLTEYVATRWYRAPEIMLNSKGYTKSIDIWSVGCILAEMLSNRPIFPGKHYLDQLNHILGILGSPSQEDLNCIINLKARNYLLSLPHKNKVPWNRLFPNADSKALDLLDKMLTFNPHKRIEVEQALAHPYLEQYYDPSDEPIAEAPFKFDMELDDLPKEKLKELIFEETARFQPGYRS

Compound	Ki
CCNc1ncc(C)c(-c2c[nH]c(C(=O)NCc3ccccc3F)c2)n1 [erk000473]	0.794 µM
CCNc1ncc(C)c(-c2c[nH]c(C(=O)NCc3cccc(F)c3)c2)n1 [erk000474]	0.083 µM
CCNc1ncc(C)c(-c2c[nH]c(C(=O)NCc3ccccc3OC)c2)n1 [erk000475]	0.468 µM
CCNc1ncc(C)c(-c2c[nH]c(C(=O)NCc3cccc(OC)c3)c2)n1 [erk000476]	0.052 µM
CCNc1ncc(C)c(-c2c[nH]c(C(=O)N[C@@H](CO)c3cc(F)cc(C(F)(F)F)c3)c2)n1 [erk000478]	0.12 µM
CCNc1ncc(C)c(-c2c[nH]c(C(=O)N[C@@H](CO)c3cccc(F)c3)c2)n1 [erk000479]	0.009 µM
CCNc1ncc(C)c(-c2c[nH]c(C(=O)NCc3ccccc3O)c2)n1 [erk000480]	1.51 µM
CCNc1ncc(C)c(-c2c[nH]c(C(=O)NCc3cccc(O)c3)c2)n1 [erk000484]	0.068 µM
CCNc1ncc(C)c(-c2c[nH]c(C(=O)NCc3ccc(O)c(O)c3)c2)n1 [erk000485]	0.427 µM
CCNc1ncc(C)c(-c2c[nH]c(C(=O)N[C@@H](CO)c3ccccc3F)c2)n1 [erk000486]	0.229 µM
Cc1cnc(N[C@@H](CO)CC2CC2)nc1-c1c[nH]c(C(=O)N[C@H](CO)c2ccccc2)c1 [erk000487]	0.004 µM
Cc1cnc(N[C@H](CO)C(C)C)nc1-c1c[nH]c(C(=O)N[C@H](CO)c2ccccc2)c1 [erk000488]	0.014 µM
CCNc1ncc(C)c(-c2c[nH]c(C(=O)N[C@@H](C(C)=O)c3ccccc3)c2)n1 [erk000489]	1.91 µM
CCNc1ncc(C)c(-c2c[nH]c(C(=O)N[C@H](CO)c3cccc(C(F)(F)F)c3)c2)n1 [erk000491]	0.013 µM
Cc1cnc(NC2CC2)nc1-c1c[nH]c(C(=O)N[C@H](CO)c2cccc(C(F)(F)F)c2)c1 [erk000492]	0.002 µM
CONc1ncc(C)c(-c2c[nH]c(C(=O)N[C@H](CO)c3ccccc3)c2)n1 [erk000493]	0.029 µM
Cc1cnc(NOC(C)C)nc1-c1c[nH]c(C(=O)N[C@H](CO)c2ccccc2)c1 [erk000494]	0.01 µM
CC(=O)Nc1ncc(C)c(-c2c[nH]c(C(=O)N[C@H](CO)c3ccccc3)c2)n1 [erk000496]	0.032 µM
Cc1cnc(NC[C@H]2CCCO2)nc1-c1c[nH]c(C(=O)N[C@H](CO)c2ccccc2)c1 [erk000497]	0.014 µM
CCOC(=O)NNc1ncc(C)c(-c2c[nH]c(C(=O)N[C@H](CO)c3ccccc3)c2)n1 [erk000498]	0.646 µM
CN(C)c1sc(C#N)c2c1-c1nc(Nc3cccc(O)c3)ncc1CC2 [erk000499]	0.04 µM
Cc1cnc(NOCC2CC2)nc1-c1c[nH]c(C(=O)N[C@H](CO)c2ccccc2)c1 [erk000500]	0.026 µM
Cc1cnc(-c2ccccc2)nc1-c1c[nH]c(C(=O)N[C@H](CO)c2ccccc2)c1 [erk000501]	0.02 µM
Cc1ncc(C)c(-c2c[nH]c(C(=O)N[C@H](CO)c3ccccc3)c2)n1 [erk000502]	0.257 µM
Cc1cnc(NC#N)nc1-c1c[nH]c(C(=O)N[C@H](CO)c2ccccc2)c1 [erk000503]	0.025 µM
Cc1cnc(NOCCO)nc1-c1c[nH]c(C(=O)N[C@H](CO)c2ccccc2)c1 [erk000504]	0.018 µM
Cc1cnc(NN(C)C)nc1-c1c[nH]c(C(=O)N[C@H](CO)c2ccccc2)c1 [erk000505]	0.007 µM

Compound	Ki
CC[C@@H](CO)Nc1ncc(C)c(-c2c[nH]c(C(=O)N[C@H](CO)c3cccc(Cl)c3)c2)n1 [erk000507]	0.002 µM
c1ccc2c(Nc3cc(C4CC4)n[nH]3)nc(Nc3ccc4nc[nH]c4c3)nc2c1 [erk000508]	0.078 µM
Cc1cnc(NC(CO)CO)nc1-c1c[nH]c(C(=O)N[C@H](CO)c2ccccc2)c1 [erk000509]	0.005 µM
Cc1cnc(N[C@@H]2C[C@@H]2C)nc1-c1c[nH]c(C(=O)N[C@H](CO)c2ccccc2)c1 [erk000510]	0.0005 µM
Cc1cnc(NC(C)(CO)CO)nc1-c1c[nH]c(C(=O)N[C@H](CO)c2ccccc2)c1 [erk000512]	0.006 µM
Cc1cnc(NC2(CO)CCCC2)nc1-c1c[nH]c(C(=O)N[C@H](CO)c2ccccc2)c1 [erk000513]	0.051 µM
Cc1cnc(N[C@H](CO)CC(C)C)nc1-c1c[nH]c(C(=O)N[C@H](CO)c2ccccc2)c1 [erk000514]	0.009 µM
Cc1cnc(N[C@H]2C[C@H]2CO)nc1-c1c[nH]c(C(=O)N[C@H](CO)c2ccccc2)c1 [erk000515]	0.021 µM
Cc1cnc(NC2CCCC2)nc1-c1c[nH]c(C(=O)N[C@H](CO)c2ccccc2)c1 [erk000516]	0.002 µM
Cc1cnc(Nc2ccccn2)nc1-c1c[nH]c(C(=O)N[C@H](CO)c2ccccc2)c1 [erk000517]	0.0004 µM
Cc1ccnc(Nc2ncc(C)c(-c3c[nH]c(C(=O)N[C@H](CO)c4ccccc4)c3)n2)c1 [erk000518]	0.004 µM
Cc1cnc(NCCN2CCOCC2)nc1-c1c[nH]c(C(=O)N[C@H](CO)c2ccccc2)c1 [erk000519]	0.12 µM
Cc1cnc(NCC[C@@H]2CCCN2C)nc1-c1c[nH]c(C(=O)N[C@H](CO)c2ccccc2)c1 [erk000520]	0.537 µM
Cc1cccnc1Nc1ncc(C)c(-c2c[nH]c(C(=O)N[C@H](CO)c3ccccc3)c2)n1 [erk000521]	0.091 µM
Cc1cccc([C@@H](CO)NC(=O)c2cc(-c3nc(NC(C)C)ncc3C)c[nH]2)c1 [erk000522]	0.001 µM
Cc1cccc([C@@H](CO)NC(=O)c2cc(-c3nc(NCC(C)C)ncc3C)c[nH]2)c1 [erk000523]	0.002 µM
Cc1cnc(NCC(C)C)nc1-c1c[nH]c(C(=O)N[C@H](CO)c2cccc(Cl)c2)c1 [erk000525]	0.003 µM
Cc1cnc(Nc2cccc(C)c2C)nc1-c1c[nH]c(C(=O)N[C@H](CO)c2cccc(Cl)c2)c1 [erk000526]	0.001 µM
Cc1cnc(Nc2cccc(O)c2C)nc1-c1c[nH]c(C(=O)N[C@H](CO)c2ccccc2)c1 [erk000527]	0.003 µM
CCN1CCC[C@H]1CNc1ncc(C)c(-c2c[nH]c(C(=O)N[C@H](CO)c3ccccc3)c2)n1 [erk000530]	0.11 µM and 0.06 µM
COc1cccc(Nc2ncc(C)c(-c3c[nH]c(C(=O)N[C@H](CO)c4ccccc4)c3)n2)c1C [erk000531]	0.079 µM
Cc1cccc([C@@H](CO)NC(=O)c2cc(-c3nc(Nc4ccccc4N(C)C)ncc3C)c[nH]2)c1 [erk000532]	0.05 µM
Cc1cnc(Nc2ccccc2C#N)nc1-c1c[nH]c(C(=O)N[C@H](CO)c2ccccc2)c1 [erk000533]	2 µM
Cc1cnc(NC2CCCCC2)nc1-c1c[nH]c(C(=O)N[C@H](CO)c2ccccc2)c1 [erk000534]	0.002 µM
COc1cccc(Nc2ncc(C)c(-c3c[nH]c(C(=O)N[C@H](CO)c4cccc(C)c4)c3)n2)c1C [erk000535]	0.2 µM
Cc1cnc(NC(C)C)nc1-c1c[nH]c(C(=O)N[C@H](CO)c2cccc(F)c2)c1 [erk000536]	0.015 µM
Cc1cnc(Nc2cccc(F)c2C)nc1-c1c[nH]c(C(=O)N[C@H](CO)c2ccccc2)c1 [erk000538]	0.002 µM

Compound	Ki
Cc1cnc(Nc2cccc(C)c2C)nc1-c1c[nH]c(C(=O)N[C@H](CO)c2cccc(F)c2)c1 [erk000539]	0.004 µM
Cc1cnc(NC2CCC2)nc1-c1c[nH]c(C(=O)N[C@H](CO)c2ccccc2)c1 [erk000540]	0.006 µM
Cc1cnc(Nc2cccc(CO)c2C)nc1-c1c[nH]c(C(=O)N[C@H](CO)c2ccccc2)c1 [erk000541]	0.001 µM
Cc1cnc(NC2CC2)nc1-c1c[nH]c(C(=O)N[C@H](CO)c2cccc(F)c2)c1 [erk000542]	0.011 µM
Nc1nccc(-c2c[nH]c(C(=O)N(CCO)Cc3ccccc3)c2)n1 [erk000543]	2 µM
CCSc1ncc(C)c(-c2c[nH]c(C(=O)N[C@H](CO)c3ccccc3)c2)n1 [erk000544]	0.065 µM
CCC[C@H](C)Nc1ncc(C)c(-c2c[nH]c(C(=O)N[C@H](CO)c3ccccc3)c2)n1 [erk000546]	0.018 µM
CCC(CC)Nc1ncc(C)c(-c2c[nH]c(C(=O)N[C@H](CO)c3ccccc3)c2)n1 [erk000547]	0.006 µM
COC[C@H](C)Nc1ncc(C)c(-c2c[nH]c(C(=O)N[C@H](CO)c3ccccc3)c2)n1 [erk000548]	0.024 µM
CC[C@@H](COC)Nc1ncc(C)c(-c2c[nH]c(C(=O)N[C@H](CO)c3ccccc3)c2)n1 [erk000549]	0.027 µM
CCC[C@@H](CO)Nc1ncc(C)c(-c2c[nH]c(C(=O)N[C@H](CO)c3ccccc3)c2)n1 [erk000551]	0.02 µM
CSCC[C@@H](CO)Nc1ncc(C)c(-c2c[nH]c(C(=O)N[C@H](CO)c3ccccc3)c2)n1 [erk000552]	0.005 µM
Cc1cnc(NC2CCC(C)CC2)nc1-c1c[nH]c(C(=O)N[C@H](CO)c2ccccc2)c1 (stereo not given in full) [erk000553]	0.006 µM
Cc1cnc(Nc2cccc3c2CCC3)nc1-c1c[nH]c(C(=O)N[C@H](CO)c2ccccc2)c1 [erk000556]	0.003 µM
CC[C@@H](COC)Nc1ncc(C)c(-c2c[nH]c(C(=O)N[C@H](CO)c3cccc(Cl)c3)c2)n1 [erk000557]	0.004 µM
Cc1cnc(NN2CCOCC2)nc1-c1c[nH]c(C(=O)N[C@H](CO)c2cccc(Cl)c2)c1 [erk000558]	0.002 µM
Cc1cnc(Nc2cc(Cl)cc(Cl)c2)nc1-c1c[nH]c(C(=O)N[C@H](CO)c2ccccc2)c1 [erk000559]	0.003 µM
CC(=O)NCCNc1ncc(C)c(-c2c[nH]c(C(=O)N[C@H](CO)c3ccccc3)c2)n1 [erk000560]	0.058 µM
Cc1cnc(Nc2c(F)cccc2F)nc1-c1c[nH]c(C(=O)N[C@H](CO)c2ccccc2)c1 [erk000561]	0.004 µM
Cc1cnc(Nc2cccc(Br)c2C)nc1-c1c[nH]c(C(=O)N[C@H](CO)c2ccccc2)c1 [erk000562]	0.027 µM
Cc1ccc(Nc2ncc(C)c(-c3c[nH]c(C(=O)N[C@H](CO)c4ccccc4)c3)n2)cc1Br [erk000563]	0.003 µM
Cc1cnc(Nc2c(Cl)cccc2Cl)nc1-c1c[nH]c(C(=O)N[C@H](CO)c2ccccc2)c1 [erk000564]	0.151 µM
Cc1cnc(Nc2cccc([N+](=O)[O-])c2)nc1-c1c[nH]c(C(=O)N[C@H](CO)c2ccccc2)c1 [erk000565]	0.003 µM
Cc1cc(C)cc(Nc2ncc(C)c(-c3c[nH]c(C(=O)N[C@H](CO)c4ccccc4)c3)n2)c1 [erk000566]	0.003 µM
Cc1cnc(NCCN2CCCC2)nc1-c1c[nH]c(C(=O)N[C@H](CO)c2ccccc2)c1 [erk000568]	0.224 µM
Cc1cnc(Nn2cccc2)nc1-c1c[nH]c(C(=O)N[C@H](CO)c2ccccc2)c1 [erk000573]	0.009 µM
